Values joined by “and” are separate entries in the source; they are usually repeats but may differ in a detail not shown here. Identical values can stand only once. ± gives the expanded uncertainty stated by the source.
Settings: Fluid (supercritical or subcritical phases), Buoyancy - hydrostatic balance with magnetic suspension - two sinkers

## CCC [propane]
370.82 K, 4316.6 kPa
  mass density: 196.656 ± 1.1 kg/m3 and 196.671 ± 1.1 kg/m3
370.82 K, 4316.7 kPa
  mass density: 196.709 ± 1.1 kg/m3 and 196.642 ± 1.1 kg/m3
370.82 K, 4316.8 kPa
  mass density: 196.799 ± 1.1 kg/m3
370.83 K, 4238.2 kPa
  mass density: 146.891 ± 1.2 kg/m3 and 146.895 ± 1.2 kg/m3 and 146.889 ± 1.2 kg/m3
370.83 K, 4238.3 kPa
  mass density: 146.899 ± 1.2 kg/m3 and 146.89 ± 1.2 kg/m3 and 146.892 ± 1.2 kg/m3
370.83 K, 4316.8 kPa
  mass density: 196.721 ± 1.1 kg/m3 and 196.767 ± 1.1 kg/m3 and 196.684 ± 1.1 kg/m3
370.83 K, 4323.4 kPa
  mass density: 219.805 ± 0.99 kg/m3 [middle of 5 runs]
370.83 K, 4323.5 kPa
  mass density: 219.874 ± 0.99 kg/m3 and 219.908 ± 0.99 kg/m3 and 219.975 ± 0.99 kg/m3
370.83 K, 4330.9 kPa
  mass density: 243.656 ± 1.2 kg/m3 [middle of 4 runs]
370.83 K, 4331 kPa
  mass density: 243.626 ± 1.2 kg/m3 and 243.674 ± 1.2 kg/m3 and 243.648 ± 1.2 kg/m3
370.83 K, 4331.1 kPa
  mass density: 243.671 ± 1.2 kg/m3
370.85 K, 4240.8 kPa
  mass density: 147.314 ± 0.24 kg/m3
370.85 K, 4240.9 kPa
  mass density: 147.324 ± 0.24 kg/m3
370.85 K, 4306.4 kPa
  mass density: 177.862 ± 0.26 kg/m3
370.85 K, 4306.5 kPa
  mass density: 177.914 ± 0.26 kg/m3 and 177.843 ± 0.26 kg/m3
370.85 K, 4306.6 kPa
  mass density: 177.931 ± 0.26 kg/m3 and 177.874 ± 0.26 kg/m3
370.85 K, 4322.8 kPa
  mass density: 208.978 ± 0.32 kg/m3 and 208.99 ± 0.32 kg/m3
370.85 K, 4322.9 kPa
  mass density: 208.933 ± 0.32 kg/m3 and 209.016 ± 0.32 kg/m3
370.85 K, 4323 kPa
  mass density: 209.074 ± 0.32 kg/m3
370.85 K, 4327.4 kPa
  mass density: 226.65 ± 0.31 kg/m3
370.85 K, 4327.5 kPa
  mass density: 226.647 ± 0.31 kg/m3
370.85 K, 4353.6 kPa
  mass density: 265.164 ± 0.21 kg/m3
370.85 K, 4353.7 kPa
  mass density: 265.36 ± 0.21 kg/m3 and 265.182 ± 0.21 kg/m3 and 265.138 ± 0.21 kg/m3
370.85 K, 4353.8 kPa
  mass density: 265.176 ± 0.21 kg/m3 [middle of 4 runs]
370.86 K, 4327.6 kPa
  mass density: 226.701 ± 0.31 kg/m3 and 226.673 ± 0.31 kg/m3
371.82 K, 4387.3 kPa
  mass density: 196.837 ± 0.87 kg/m3 and 196.769 ± 0.87 kg/m3
371.82 K, 4416.6 kPa
  mass density: 243.565 ± 0.91 kg/m3
371.83 K, 4293.5 kPa
  mass density: 147.926 ± 0.75 kg/m3
371.83 K, 4293.6 kPa
  mass density: 147.93 ± 0.75 kg/m3 and 147.934 ± 0.75 kg/m3 and 147.924 ± 0.74 kg/m3
371.83 K, 4293.7 kPa
  mass density: 147.947 ± 0.75 kg/m3 and 147.93 ± 0.74 kg/m3
371.83 K, 4387.3 kPa
  mass density: 196.784 ± 0.87 kg/m3 and 196.769 ± 0.87 kg/m3
371.83 K, 4387.4 kPa
  mass density: 196.809 ± 0.87 kg/m3 [middle of 4 runs]
371.83 K, 4400.8 kPa
  mass density: 219.56 ± 0.86 kg/m3
371.83 K, 4400.9 kPa
  mass density: 219.574 ± 0.85 kg/m3 and 219.677 ± 0.85 kg/m3 and 219.642 ± 0.85 kg/m3
371.83 K, 4401 kPa
  mass density: 219.681 ± 0.86 kg/m3 [middle of 4 runs]
371.83 K, 4416.6 kPa
  mass density: 243.624 ± 0.91 kg/m3
371.83 K, 4416.7 kPa
  mass density: 243.578 ± 0.91 kg/m3 and 243.586 ± 0.91 kg/m3
371.83 K, 4416.8 kPa
  mass density: 243.575 ± 0.91 kg/m3 and 243.616 ± 0.91 kg/m3 and 243.58 ± 0.91 kg/m3
371.83 K, 4416.9 kPa
  mass density: 243.605 ± 0.9 kg/m3
371.85 K, 4295.8 kPa
  mass density: 148.252 ± 0.16 kg/m3
371.85 K, 4295.9 kPa
  mass density: 148.276 ± 0.16 kg/m3 and 148.252 ± 0.16 kg/m3
371.85 K, 4370.3 kPa
  mass density: 177.981 ± 0.24 kg/m3
371.85 K, 4370.4 kPa
  mass density: 178.031 ± 0.24 kg/m3 and 177.991 ± 0.24 kg/m3 and 178.027 ± 0.24 kg/m3
371.85 K, 4370.5 kPa
  mass density: 178.012 ± 0.24 kg/m3
371.85 K, 4397.1 kPa
  mass density: 208.855 ± 0.19 kg/m3 and 208.907 ± 0.19 kg/m3
371.85 K, 4397.2 kPa
  mass density: 208.865 ± 0.19 kg/m3 and 208.929 ± 0.19 kg/m3 and 208.907 ± 0.19 kg/m3
371.85 K, 4407.1 kPa
  mass density: 226.926 ± 0.19 kg/m3
371.85 K, 4407.2 kPa
  mass density: 226.521 ± 0.19 kg/m3 and 226.511 ± 0.19 kg/m3
371.85 K, 4450.2 kPa
  mass density: 265.14 ± 0.25 kg/m3
371.85 K, 4450.3 kPa
  mass density: 265.143 ± 0.25 kg/m3
371.85 K, 4450.4 kPa
  mass density: 265.125 ± 0.25 kg/m3 and 265.134 ± 0.25 kg/m3 and 265.131 ± 0.25 kg/m3
371.86 K, 4407.3 kPa
  mass density: 226.504 ± 0.19 kg/m3 and 226.483 ± 0.19 kg/m3
372 K, 4517.4 kPa
  mass density: 281.197 ± 0.71 kg/m3
372 K, 4517.6 kPa
  mass density: 281.196 ± 0.71 kg/m3 and 281.206 ± 0.71 kg/m3 and 281.197 ± 0.71 kg/m3
372 K, 4517.7 kPa
  mass density: 281.2 ± 0.71 kg/m3 [middle of 4 runs]
375 K, 3980.2 kPa
  mass density: 100.464 ± 0.14 kg/m3 and 100.463 ± 0.14 kg/m3
375 K, 3980.3 kPa
  mass density: 100.468 ± 0.14 kg/m3 and 100.463 ± 0.14 kg/m3
375 K, 4455 kPa
  mass density: 148.081 ± 0.3 kg/m3 [middle of 5 runs]
375 K, 4455.1 kPa
  mass density: 148.084 ± 0.3 kg/m3 and 148.085 ± 0.3 kg/m3 and 148.081 ± 0.3 kg/m3
375 K, 4456.1 kPa
  mass density: 148.366 ± 0.097 kg/m3 and 148.364 ± 0.097 kg/m3 and 148.371 ± 0.097 kg/m3
375 K, 4456.2 kPa
  mass density: 148.361 ± 0.097 kg/m3
375 K, 4568.9 kPa
  mass density: 178.196 ± 0.12 kg/m3 [middle of 4 runs]
375 K, 4569 kPa
  mass density: 178.185 ± 0.12 kg/m3
375 K, 4609.7 kPa
  mass density: 197.026 ± 0.44 kg/m3 and 197.015 ± 0.44 kg/m3
375 K, 4609.8 kPa
  mass density: 197.023 ± 0.44 kg/m3 [middle of 5 runs]
375 K, 4630.9 kPa
  mass density: 208.979 ± 0.095 kg/m3
375 K, 4631 kPa
  mass density: 208.963 ± 0.095 kg/m3 and 208.962 ± 0.095 kg/m3 and 208.991 ± 0.095 kg/m3
375 K, 4631.1 kPa
  mass density: 208.972 ± 0.095 kg/m3
375 K, 4648.5 kPa
  mass density: 219.668 ± 0.34 kg/m3
375 K, 4648.6 kPa
  mass density: 219.65 ± 0.34 kg/m3 [middle of 6 runs]
375 K, 4648.7 kPa
  mass density: 219.656 ± 0.34 kg/m3
375 K, 4660.8 kPa
  mass density: 226.495 ± 0.085 kg/m3
375 K, 4660.9 kPa
  mass density: 226.503 ± 0.085 kg/m3 and 226.483 ± 0.085 kg/m3
375 K, 4661 kPa
  mass density: 226.54 ± 0.085 kg/m3
375 K, 4694.5 kPa
  mass density: 243.594 ± 0.41 kg/m3 and 243.602 ± 0.41 kg/m3 and 243.583 ± 0.41 kg/m3
375 K, 4694.6 kPa
  mass density: 243.603 ± 0.41 kg/m3 [middle of 4 runs]
375 K, 4761.6 kPa
  mass density: 265.09 ± 0.087 kg/m3
375 K, 4761.7 kPa
  mass density: 265.094 ± 0.087 kg/m3 and 265.087 ± 0.087 kg/m3
375 K, 4761.8 kPa
  mass density: 265.087 ± 0.087 kg/m3
375 K, 4761.9 kPa
  mass density: 265.101 ± 0.087 kg/m3
375 K, 4846.9 kPa
  mass density: 281.14 ± 0.22 kg/m3 [middle of 4 runs]
375 K, 4847.1 kPa
  mass density: 281.138 ± 0.22 kg/m3 and 281.143 ± 0.22 kg/m3
375 K, 5843.8 kPa
  mass density: 337.161 ± 0.077 kg/m3
375 K, 5843.9 kPa
  mass density: 337.161 ± 0.077 kg/m3
375 K, 5844 kPa
  mass density: 337.161 ± 0.077 kg/m3 and 337.159 ± 0.077 kg/m3
375 K, 5844.1 kPa
  mass density: 337.162 ± 0.077 kg/m3
375 K, 5844.2 kPa
  mass density: 337.16 ± 0.077 kg/m3 and 337.158 ± 0.077 kg/m3
375.01 K, 4661 kPa
  mass density: 226.502 ± 0.085 kg/m3
375.01 K, 4847.1 kPa
  mass density: 281.141 ± 0.22 kg/m3 and 281.139 ± 0.22 kg/m3
380 K, 320.18 kPa
  mass density: 4.576 ± 0.0029 kg/m3
380 K, 320.19 kPa
  mass density: 4.576 ± 0.0029 kg/m3
380 K, 569.88 kPa
  mass density: 8.3091 ± 0.0033 kg/m3 and 8.3093 ± 0.0033 kg/m3
380 K, 569.89 kPa
  mass density: 8.3092 ± 0.0033 kg/m3 and 8.3093 ± 0.0033 kg/m3
380 K, 954.79 kPa
  mass density: 14.3809 ± 0.0041 kg/m3
380 K, 954.8 kPa
  mass density: 14.3809 ± 0.0041 kg/m3
380 K, 954.81 kPa
  mass density: 14.3809 ± 0.0041 kg/m3
380 K, 1441 kPa
  mass density: 22.71 ± 0.026 kg/m3
380 K, 1441.3 kPa
  mass density: 22.7154 ± 0.026 kg/m3
380 K, 1442 kPa
  mass density: 22.7271 ± 0.026 kg/m3
380 K, 1442.3 kPa
  mass density: 22.733 ± 0.026 kg/m3
380 K, 1442.6 kPa
  mass density: 22.7383 ± 0.026 kg/m3
380 K, 2208.6 kPa
  mass density: 37.8037 ± 0.031 kg/m3 [middle of 4 runs]
380 K, 2208.8 kPa
  mass density: 37.8087 ± 0.031 kg/m3
380 K, 3020.8 kPa
  mass density: 57.7697 ± 0.038 kg/m3 and 57.7694 ± 0.038 kg/m3
380 K, 3020.9 kPa
  mass density: 57.7728 ± 0.038 kg/m3
380 K, 3021 kPa
  mass density: 57.7733 ± 0.038 kg/m3
380 K, 3021.1 kPa
  mass density: 57.7794 ± 0.038 kg/m3
380 K, 3513.2 kPa
  mass density: 73.3301 ± 0.055 kg/m3
380 K, 3513.4 kPa
  mass density: 73.3336 ± 0.055 kg/m3
380 K, 3513.5 kPa
  mass density: 73.3364 ± 0.055 kg/m3
380 K, 3513.6 kPa
  mass density: 73.3391 ± 0.055 kg/m3 and 73.3404 ± 0.055 kg/m3 and 73.3402 ± 0.055 kg/m3
380 K, 4131.9 kPa
  mass density: 100.514 ± 0.089 kg/m3
380 K, 4132 kPa
  mass density: 100.514 ± 0.089 kg/m3
380 K, 4132.1 kPa
  mass density: 100.516 ± 0.089 kg/m3 and 100.515 ± 0.089 kg/m3
380 K, 4703.8 kPa
  mass density: 148.075 ± 0.14 kg/m3

From the NIST ThermoML archive (doi:10.1021/je900124n)
